Laboratory results published in patent US6716833B2, “Acetylenic α-amino acid-based sulfonamide hydroxamic acid tace inhibitors” (priority 1999, dated 2004).
Structures can show the parent of a compound that is named as a salt. Where two headings read alike, the source gives them in different places. Blank lines part the entries; values can stand above or below the compound they belong to.

Experiments:
Type in all cases: biochemical
MMP-1 = target: T1, MMP-1 (Homo sapiens, UniProt P03956); test: MMP-1 inhibition (thiopeptide or fluorescent peptide substrate); conditions: read-out: MMP-1 IC50
T1 sequence (P03956 100-469): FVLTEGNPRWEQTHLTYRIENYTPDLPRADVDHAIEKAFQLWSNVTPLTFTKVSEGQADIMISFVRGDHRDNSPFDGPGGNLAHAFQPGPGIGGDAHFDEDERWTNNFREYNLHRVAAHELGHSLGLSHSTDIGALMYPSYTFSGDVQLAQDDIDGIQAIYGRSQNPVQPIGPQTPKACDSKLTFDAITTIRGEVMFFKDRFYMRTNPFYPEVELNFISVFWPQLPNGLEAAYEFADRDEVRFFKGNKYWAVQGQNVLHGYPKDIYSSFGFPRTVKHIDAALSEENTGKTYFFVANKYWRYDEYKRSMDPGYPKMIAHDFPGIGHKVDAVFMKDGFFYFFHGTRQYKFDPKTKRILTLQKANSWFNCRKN

[1] = target: TNF-α converting enzyme (TACE) (Homo sapiens, UniProt P78536); test: TACE inhibition (fluorescent peptidyl substrate); conditions: read-out: TACE IC50
MMP-13 = MMP-13 (Homo sapiens, UniProt P45452); test: MMP-13 inhibition (thiopeptide or fluorescent peptide substrate)
[2] = Table 11, read-out: MMP-13 IC50
[3] = Table 10, read-out: MMP-13 IC50

TNF-α converting enzyme (TACE), sequence (P78536 215-824, species assumed): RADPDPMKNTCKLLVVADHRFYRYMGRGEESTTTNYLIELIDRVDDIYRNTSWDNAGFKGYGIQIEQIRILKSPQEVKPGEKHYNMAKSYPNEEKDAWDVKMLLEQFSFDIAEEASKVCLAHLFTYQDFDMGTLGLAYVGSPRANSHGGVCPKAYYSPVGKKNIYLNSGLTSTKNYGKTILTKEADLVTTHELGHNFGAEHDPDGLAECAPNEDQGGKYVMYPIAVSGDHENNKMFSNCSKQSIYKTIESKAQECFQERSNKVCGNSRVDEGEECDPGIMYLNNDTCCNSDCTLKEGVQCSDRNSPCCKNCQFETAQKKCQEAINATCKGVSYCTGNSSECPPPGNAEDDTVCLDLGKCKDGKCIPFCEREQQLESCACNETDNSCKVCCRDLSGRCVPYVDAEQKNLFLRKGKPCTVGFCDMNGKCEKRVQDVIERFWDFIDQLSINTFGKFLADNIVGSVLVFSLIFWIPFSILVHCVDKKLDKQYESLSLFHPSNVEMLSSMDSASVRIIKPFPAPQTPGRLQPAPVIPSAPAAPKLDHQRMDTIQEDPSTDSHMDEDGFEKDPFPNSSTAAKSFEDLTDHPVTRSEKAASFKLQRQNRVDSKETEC

SMILES: CC#CCOc1ccc(S(=O)(=O)N2C[C@H](CC(=O)NCCN(C)C)SC(C)(C)[C@@H]2C(=O)NO)cc1 [Example 284, (3S,6S)-4-{[4-(2-Butynyloxy)phenyl]sulfonyl}-6-(2-{[2-(dimethylamino)ethyl]amino}-2-oxoethyl)-N-hydroxy-2,2-dimethyl-3-thiomorpholinecarboxamide]
IC50 (MMP-1; Table 11): 31 nM | IC50 ([1]; Table 11): 125 nM | IC50 (MMP-13; [2]): 76 nM

SMILES: CC#CCOc1ccc(S(=O)(=O)N2C[C@H](CC(=O)NO)SC(C)(C)[C@@H]2C(=O)NO)cc1 [Example 279, (3S,6S)-4-{[4-(2-Butynyloxy)phenyl]sulfonyl}-N-hydroxy-6-[2-(hydroxyamino)-2-oxoethyl]-2,2-dimethyl-3-thiomorpholinecarboxamide]
IC50 (MMP-1; Table 11): 21 nM | IC50 ([1]; Table 11): 46 nM | IC50 (MMP-13; [2]): 4.5 nM

SMILES: CC#CCOc1ccc(S(=O)(=O)N2C[C@H](CC(N)=O)SC(C)(C)[C@@H]2C(=O)NO)cc1 [Example 280, (3S,6S)-6-(2-Amino-2-oxoethyl)-4-{[4-(2-butynyloxy)phenyl]sulfonyl}-N-hydroxy-2,2-dimethyl-3-thiomorpholinecarboxamide]
IC50 (MMP-1; Table 11): 35 nM | IC50 ([1]; Table 11): 42 nM | IC50 (MMP-13; [2]): 29 nM

SMILES: CC#CCOc1ccc(S(=O)(=O)N2C[C@H](CC(=O)N3CCOCC3)SC(C)(C)[C@@H]2C(=O)NO)cc1 [Example 282, (3S,6S)-4-{[4-(2-Butynyloxy)phenyl]sulfonyl}-N-hydroxy-2,2-dimethyl-6-[2-(4-morpholinyl)-2-oxoethyl]-3-thiomorpholinecarboxamide]
IC50 (MMP-1; Table 11): 25 nM | IC50 ([1]; Table 11): 95 nM | IC50 (MMP-13; [2]): 20 nM

SMILES: CC#CCOc1ccc(S(=O)(=O)N2CCNCCC2C(=O)NO)cc1 (stereo not drawn) [Example 292, 4-{[4-(2-Butynyloxy)phenyl]sulfonyl}-N-hydroxy-1,4-diazepane-5-carboxamide]
IC50 (MMP-1): 274 nM | IC50 [1]: 24 nM | IC50 (MMP-13; read-out: MMP-13 IC50): 33 nM

SMILES: CCC#CCOc1ccc(S(=O)(=O)N2CCSC(C)(C)[C@@H]2C(=O)NO)cc1 [Example 259, (3S)-N-Hydroxy-2,2-dimethyl-4-{[4-(2-pentynyloxy)phenyl]sulfonyl}-3-thiomorpholine Carboxamide]
IC50 (MMP-1; Table 9): 5.9 nM | IC50 ([1]; Table 9): 28 nM | IC50 (MMP-13; Table 9, read-out: MMP-13 IC50): 5 nM

SMILES: CC1(C)SCCN(S(=O)(=O)c2ccc(OCC#CCF)cc2)[C@H]1C(=O)NO [Example 264, (3S)-4-({4-[(4-Fluoro-2-butynyl)oxy]phenyl}sulfonyl)-N-hydroxy-2,2-dimethyl-3-thiomorpholine Carboxamide]
IC50 (MMP-1; Table 10): 11 nM | IC50 ([1]; Table 10): 35 nM | IC50 (MMP-13; [3]): 2.5 nM

SMILES: CC#CCOc1ccc(S(=O)(=O)N2[C@@H](C(=O)NO)C(C)(C)SC[C@@H]2C)cc1 [Example 270, (3S,5S)-4-{[4-(2-Butynyloxy)phenyl]sulfonyl}-N-hydroxy-2,2,5-trimethyl-3-thiomorpholinecarboxamide]
IC50 (MMP-1; Table 11): 32 nM | IC50 ([1]; Table 11): 86 nM | IC50 (MMP-13; [2]): 61 nM

SMILES: CC(=O)OCC#CCOc1ccc(S(=O)(=O)N2CCSC(C)(C)[C@@H]2C(=O)NO)cc1 [Example 261, 4-[4-({(3S3-[(Hydroxyamino)carbonyl]-2,2-dimethylthiomorpholinyl}sulfonyl)phenoxy]-2-butynyl Acetate]
IC50 (MMP-1; Table 10): 103 nM | IC50 ([1]; Table 10): 45 nM | IC50 (MMP-13; [3]): 1.1 nM

SMILES: CC1(C)SCCN(S(=O)(=O)c2ccc(OCC#CC#CCO)cc2)[C@H]1C(=O)NO [Example 262, (3S)-N-Hydroxy-4-({4-[(6-hydroxy-2,4-hexadiynyl)oxy]phenyl}sulfonyl)-2,2-dimethyl-3-thiomorpholine Carboxamide]
IC50 (MMP-1; Table 10): 9.9 nM | IC50 ([1]; Table 10): 39 nM | IC50 (MMP-13; [3]): 14 nM

SMILES: CC#CCOc1ccc(S(=O)(=O)N2CCSC3(CCN(Cc4ccccc4)CC3)C2C(=O)NO)cc1 (stereo not drawn) [Example 241, 9-Benzyl-4-{[4-(2-butynyloxy)phenyl]sulfonyl}-N-hydroxy-1-thia-4,9-diazaspiro[5.5]undecane-5-carboxamide]
IC50 (MMP-1; Table 9): 3.1 nM | IC50 ([1]; Table 9): 786 nM | IC50 (MMP-13; Table 9, read-out: MMP-13 IC50): 0.5 nM

SMILES: CC#CCOc1ccc(S(=O)(=O)N2C[C@H](CC(=O)N3CCN(C)CC3)SC(C)(C)[C@@H]2C(=O)NO)cc1 [Example 283, (3S,6S)-4-{[4-(2-Butynyloxy)phenyl]sulfonyl}-N-hydroxy-2,2-dimethyl-6-[2-(4-methyl-1-piperazinyl)-2-oxoethyl]-3-thiomorpholinecarboxamide hydrochloride]
IC50 (MMP-1; Table 11): 28 nM | IC50 ([1]; Table 11): 143 nM | IC50 (MMP-13; [2]): 23 nM

SMILES: C#CCOc1ccc(S(=O)(=O)N2CCSC(C)(C)[C@@H]2C(=O)NO)cc1 [Example 258, (3S)-N-Hydroxy-2,2-dimethyl-4-{[4-(2-propynyloxy)phenyl]sulfonyl}-3-thiomorpholine Carboxamide]
IC50 (MMP-1; Table 9): 0.6 nM | IC50 ([1]; Table 9): 19 nM | IC50 (MMP-13; Table 9, read-out: MMP-13 IC50): 0.8 nM

SMILES: CC(=O)OCCCCC#CCOc1ccc(S(=O)(=O)N2CCSC(C)(C)[C@@H]2C(=O)NO)cc1 [Example 268, 7-[4-({(3S)-3-[(Hydroxyamino)carbonyl]-2,2-dimethylthiomorpholinyl}sulfonyl)phenoxy]-5-heptynyl Acetate]
IC50 (MMP-1; Table 10): 29 nM | IC50 ([1]; Table 10): 78 nM | IC50 (MMP-13; [3]): 2.9 nM

SMILES: CC#CCOc1ccc(S(=O)(=O)N2C[C@H](CC(=O)N(C)C)SC(C)(C)[C@@H]2C(=O)NO)cc1 [Example 281, (3S,6S)-4-{[4-(2-Butynyloxy)phenyl]sulfonyl}-6-[2-(dimethylamino)-2-oxoethyl]-N-hydroxy-2,2-dimethyl-3-thiomorpholinecarboxamide]
IC50 (MMP-1; Table 11): 50 nM | IC50 ([1]; Table 11): 130 nM | IC50 (MMP-13; [2]): 23 nM

Other lines, results leading:

IC50 (MMP-1): 40 nM | IC50 [1]: 7.4 nM | IC50 (MMP-13; read-out: MMP-13 IC50): 4.5 nM
SMILES: CC#CCOc1ccc(S(=O)(=O)N(C)C(C(=O)NO)C(C)C)cc1 (stereo not drawn) [Example 9, 2-[(4-but-2-ynyloxy-Benzenesulfonyl)-methyl-amino]-N-hydroxy-3-methyl-butyramide]

IC50 (MMP-1): 238 nM | IC50 [1]: 23 nM | IC50 (MMP-13; MMP-13 IC50): 21 nM
SMILES: CC#CCOc1ccc(S(=O)(=O)N2CCN(C)CCC2C(=O)NO)cc1 (stereo not drawn) [Example 293, 4-{[4-(2-Butynyloxy)phenyl]sulfonyl}-N-hydroxy-1-methyl-1,4-diazepane-5-carboxamide]

IC50 (MMP-1; Table 11): 316 nM | IC50 ([1]; Table 11): 16 nM | IC50 (MMP-13; [2]): 271 nM
SMILES: CC#CCOc1ccc(S(=O)(=O)N2C=CSC(C)(C)[C@@H]2C(=O)NO)cc1 [Example 379, (3S)-4-{[4-(2-Butynyloxy)phenyl]sulfonyl}-N-hydroxy-2,2-dimethyl-3,4-dihydro-2H-1,4-thiazine-3-carboxamide]

IC50 (MMP-1): ~10000 nM | IC50 [1]: 39 nM | IC50 (MMP-13; read-out: MMP-13 IC50): 132 nM
SMILES: CC#CCOc1ccc(S(=O)(=O)NC(C(=O)NO)c2ccc(OCCOCCOCCOC)cc2)cc1 (stereo not drawn) [Example 209, 2-({[4-(2-Butynyloxy)phenyl]sulfonyl}amino)-N-hydroxy-2-(4-{2-[2-(2-methoxyethoxy)ethoxy]ethoxy}phenyl)acetamide]

IC50 (MMP-1; Table 10): 101 nM | IC50 ([1]; Table 10): 53 nM | IC50 (MMP-13; [3]): 17 nM
SMILES: CC1(C)SCCN(S(=O)(=O)c2ccc(OCC#CCCCCO)cc2)[C@H]1C(=O)NO [Example 269, (3S)-N-Hydroxy-4-([4-[(7-hydroxy-2-heptynyl)oxy]phenyl}sulfonyl)-2,2-dimethyl-3-thiomorpholinecarboxamide]

IC50 (MMP-1; Table 10): 87 nM | IC50 ([1]; Table 10): 199 nM | IC50 (MMP-13; [3]): 4.3 nM
SMILES: CC(C)(C)OC(=O)NCCCCC#CCOc1ccc(S(=O)(=O)N2CCSC(C)(C)[C@@H]2C(=O)NO)cc1 [Example 252, tert-Butyl 7-[4-({(3S)-3-[(Hydroxyamino)carbonyl]-2,2-dimethylthiomorpholinyl}sulfonyl)phenoxy]-5-heptynylcarbamate]
